Experimental data as given in patent US20260216347A1, “Substituted Imidazo-Based Compounds as Ligand Directed Degraders of IRAK3” (Celgene Corporation, priority 2022, published 2026).

Columns and labels:
IRAK3 [1] = biological target: T1, IRAK3 (Homo sapiens, UniProt Q9Y616); assay: IRAK endogenous HTRF degradation assay (Total-IRAK3 HTRF kit); assay type: cell-based; conditions: overnight incubation, lowest percentage of protein remaining
T1 construct: IRAK Endogenous HTRF Degradation Assay; endogenous in cells
T1 sequence (Q9Y616 1-596): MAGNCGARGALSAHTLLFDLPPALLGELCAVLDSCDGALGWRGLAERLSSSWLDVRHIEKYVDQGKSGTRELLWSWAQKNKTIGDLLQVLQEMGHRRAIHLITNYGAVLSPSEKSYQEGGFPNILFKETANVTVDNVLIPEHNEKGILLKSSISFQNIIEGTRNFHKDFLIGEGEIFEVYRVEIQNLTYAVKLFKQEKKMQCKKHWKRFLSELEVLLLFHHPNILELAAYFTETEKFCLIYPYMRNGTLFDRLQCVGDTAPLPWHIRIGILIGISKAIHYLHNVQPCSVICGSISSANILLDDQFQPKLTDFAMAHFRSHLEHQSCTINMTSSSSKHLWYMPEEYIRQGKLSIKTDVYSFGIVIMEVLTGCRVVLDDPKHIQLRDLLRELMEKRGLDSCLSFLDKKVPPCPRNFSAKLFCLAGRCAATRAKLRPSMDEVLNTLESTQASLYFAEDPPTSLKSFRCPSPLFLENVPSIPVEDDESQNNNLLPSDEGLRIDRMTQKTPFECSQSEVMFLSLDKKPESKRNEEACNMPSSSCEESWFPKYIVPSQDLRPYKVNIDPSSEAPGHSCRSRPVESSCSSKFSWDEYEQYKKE
Protocol: Example B2. IRAK Endogenous HTRF Degradation Assay
Cells (~50 k) were plated in Cisbio 96-well low volume white plates (Cisbio: cat #66PL96005). Compounds were dissolved in DMSO and a 3-fold serial dilution was performed using a TECAN D300E. Cells were incubated with the compound overnight. Total-IRAK3 HTRF kit from Cisbio was used for degradation analysis (Cisbio: 63ADK101PEH). Cryptate and D2 antibodies were diluted in Detection buffer as per manufacturers recommendation. Then 2 μL of each solution was added to 16 μL lysate. Buffer control (lysis buffer detection buffer), Cryptate control (lysis buffer+cryptate antibody+detection buffer), and Negative control (lysis buffer+cryptate antibody+D2 antibody) were made as per manufacturers recommendation. Post incubation with antibodies the HTRF signal was measured using a Perkin Elmer Envision reader and the HTRF signal was calculated using formula: (Emission at 665 nm/Emission at 615 nm)*10,000. All HTRF values were normalized to the average value of DMSO. The average value of the DMSO control wells were set to equal 100% of the relative IRAK3 protein levels. Normalized luminescence values were plotted on a graph as a function of compound concentration. Compound concentration was plotted on the x-axis and the corresponding normalized IRAK3 protein levels on the y-axis. The EC50 value (the half-maximum effective concentration) of a compound for the degradation of the IRAK3 was calculated using a four-parameter logistic model (sigmoidal dose-response model) (FIT=(A+{(B−A)/1+[(C/x)D]})) where C is the inflection point (EC50), D is the […], and A and B are the low and high limits of the fit, respectively). The Ymin was calculated by determining the lowest percentage of target protein remaining following compound treatment. Dmax was calculated from Ymin (% Dmax=100−Ymin).
Using these assays, IC50, Dmax, EC50, and DC50 values of the following compounds were determined. Dmax is defined as the maximum percent degradation achieved and DC50 is the concentration at which 50% degradation is achieved.

IRAK3 [2] = biological target: T1, IRAK3; assay: IRAK3 biochemical binding assay (LanthaScreen Eu Kinase Binding, TR-FRET)
Summary of the method: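 TR-FRET tracer-displacement binding with 10 nM IRAK3, 2 nM Eu-anti-GST antibody and 10 nM tracer in 50 mM HEPES pH 7.4, MgCl2, 1 mM EGTA, 0.01% Brij-35. Compounds in 3-fold dilutions, 1 h at room temperature. 665/615 nm ratio gave % inhibition; IC50 and Hill slope from dose-response fit.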

IRAK3-ePL = biological target: T2, IRAK3-ePL (Homo sapiens, UniProt Q9Y616); assay: IRAK3-ePL overexpressing degradation assay (InCELL Hunter luminescence, dose response); assay type: cell-based; conditions: for IRAK3 ePL degradation Ymin: lowest percentage of target protein remaining following compound treatment; for DC50: read-out: IRAK3 ePL degradation EC50
T2 construct: expressed in transfected cells; host or cells: 293T CRBN OE/GSPT1 G575N KI cells, lentiviral transduction, puromycin selected
Summary of the method: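 Lenti-X 293T CRBN/GSPT1 G575N cells stably expressing IRAK3-ePL (5,000/well) treated overnight at 37° C with 10-point 3-fold dilutions from 10 μM, 0.2% DMSO. InCELL Hunter luminescence, background subtracted using Ataluren wells and normalized to DMSO; EC50 from four-parameter logistic fit.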

Row | Structure (SMILES) | IRAK3 HTRF degradation Ymin (IRAK3 [1]) [%] | IC50 (IRAK3 [2]) [nM] | IRAK3 ePL degradation Ymin (IRAK3-ePL) [%] | DC50 (IRAK3-ePL) [nM]
1 | Cc1cc(-c2cnc(Nc3cnn(C4CCN(C(=O)CN5CCN(c6ccc7c(c6)C(=O)N(C6CCC(=O)NC6=O)C7=O)CC5)CC4)c3)c3nccn23)c(F)cc1F (centres unmarked) [Compound 24, 5-(4-(2-(4-(4-((5-(2,4-difluoro-5-methylphenyl)imidazo[1,2-a]pyrazin-8-yl)amino)-1H-pyrazol-1-yl)piperidin-1-yl)-2-oxoethyl)piperazin-1-y1)-2-(2,6-dioxopiperidin-3-yl)isoindoline-1,3-dione] | 25 | 4.6 | – | –
2 | Cc1cc(-c2cnc(Nc3cnn([C@H]4CC[C@@H](CCN5CCN(c6ccc(C7CCC(=O)NC7=O)cc6)C[C@@H]5C)CC4)c3)c3nccn23)c(F)cc1F (stereo partly drawn) [Compound 27, 3-(4-((S)-4-(2-((cis)-4-(4-((5-(2,4-difluoro-5-methylphenyl)imidazo[1,2-a]pyrazin-8-yl)amino)-1H-pyrazol-1-yl)cyclohexyl)ethyl)-3-methylpiperazin-1-yl)phenyl) piperidine-2,6-dione] | 14 | 7.6 | – | –
3 | Cc1cc(-c2cnc(Nc3cnn([C@H]4CCN(CCN5CCN(c6ccc(C7CCC(=O)NC7=O)cc6)CC5)[C@@H](C)C4)c3)c3nccn23)c(F)cc1F (stereo partly drawn) [Compound 26, 3-(4-(4-(2-((2S,4S)-4-(4-((5-(2,4-difluoro-5-methylphenyl)imdazo [1,2-a]pyrazin-8-yl)amino)-1H-pyrazol-1-yl)-2-methylpiperidin-1-yl)ethyl)piperazin-1-yl)phenyl) piperidine-2,6-dione] | 12 | 1.1 | – | –
4 | Cc1cc(-c2cnc(Nc3cnn([C@@H]4CCN(CCN5CCN(c6ccc(C7CCC(=O)NC7=O)cc6)C[C@@H]5C)[C@H](C)C4)c3)c3nccn23)c(F)cc1F (stereo partly drawn) [Compound 59, 3-(4-((S)-4-(2-((2R,4R)-4-(4-((5-(2,4-difluoro-5-methylphenyl)imdazo [1,2-a]pyrazin-8-yl)amino)-1H-pyrazol-1-yl)-2-methylpiperidin-1-yl)ethyl)-3-methylpiperazin-1-yl)phenyl) piperidine-2,6-dione] | 7.5 | – | 21 | 0.51
5 | C[C@H]1CN(c2ccc(C3CCC(=O)NC3=O)cc2)CCN1CCN1CCC(n2cc(Nc3ncc(C4CC4)n4ccnc34)cn2)CC1 (stereo partly drawn) [Compound 38, 3-(4-((S)-4-(2-(4-(4-((5-cyclopropylimidazo[1,2-a]pyrazin-8-yl)amino)-1H-pyrazol-1-yl)piperidin-1-yl)ethyl)-3-methylpiperazin-1-yl)phenyl) piperidine-2,6-dione] | 9.1 | – | 25 | 0.51
6 | Cc1cccc(-c2cnc(Nc3cnn([C@H]4CC[C@@H](CCN5CCN(c6ccc(C7CCC(=O)NC7=O)cc6)CC5)CC4)c3)c3nccn23)c1 (stereo partly drawn) [Compound 45, 3-(4-(4-(2-((cis)-4-(4-((5-(m-tolyl)imidazo [1,2-a]pyrazin-8-yl)amino)-1H-pyrazol-1-yl)cyclohexyl)ethyl)piperazin-1-yl)phenyl) piperidine-2,6-dione] | 15 | – | 26 | 7.2
7 | Cc1cc(-c2cnc(Nc3cnn([C@H]4CC[C@H](CCN5CCN(c6ccc(C7CCC(=O)NC7=O)cc6)C[C@H]5C)CC4)c3)c3nccn23)c(F)cc1F (stereo partly drawn) [Compound 37, 3-(4-((R)-4-(2-((trans)-4-(4-((5-(2,4-difluoro-5-methylphenyl)imidazo[1,2-a]pyrazin-8-yl)amino)-1H-pyrazol-1-yl)cyclohexyl)ethyl)-3-methylpiperazin-1-yl)phenyl) piperidine-2,6-dione] | 10 | – | 20 | 3.8
8 | Cc1cc(-c2cnc(Nc3cnn(C4CCN(CCN5CCN(c6ccc(C7CCC(=O)N(C)C7=O)cc6)CC5)CC4)c3)c3nccn23)c(F)cc1F (centres unmarked) [Compound 55, 3-(4-(4-(2-(4-(4-((5-(2,4-difluoro-5-methylphenyl)imdazo [1,2-a]pyrazin-8-yl)amino)-1H-pyrazol-1-yl)piperidin-1-yl)ethyl)piperazin-1-yl)phenyl)-1-methylpiperidine-2,6-dione] | 64 | – | 84 | 1100
9 | COc1cc(N2CCN(CCN3CCC(n4cc(Nc5ncc(-c6cc(C)c(F)cc6F)n6ccnc56)cn4)CC3)CC2)ccc1C1CCC(=O)NC1=O (centres unmarked) [Compound 25, 3-(4-(4-(2-(4-(4-((5-(2,4-difluoro-5-methylphenyl)imdazo [1,2-a]pyrazin-8-yl)amino)-1H-pyrazol-1-yl)piperidin-1-yl)ethyl)piperazin-1-yl)-2-methoxyphenyl) piperidine-2,6-dione] | 18 | 1.7 | – | –
10 | Cc1cc(-c2cnc(N[C@@H]3CCN(C4CCN(CCN5CCN(c6ccc(C7CCC(=O)NC7=O)cc6)CC5)CC4)C3)c3nccn23)c(F)cc1F (stereo partly drawn) [Compound 60, 3-(4-(4-(2-(4-((R)-3-((5-(2,4-difluoro-5-methylphenyl)imdazo [1,2-a]pyrazin-8-yl)amino)pyrrolidin-1-yl)piperidin-1-yl)ethyl)piperazin-1-yl)phenyl) piperidine-2,6-dione] | 96 | – | 92 | 0.51
11 | COc1cc(C2CCC(=O)NC2=O)ccc1N1CCN(CCN2CCC(n3cc(Nc4ncc(-c5cc(C)c(F)cc5F)n5ccnc45)cn3)CC2)CC1 (centres unmarked) [Compound 42, 3-(4-(4-(2-(4-(4-((5-(2,4-difluoro-5-methylphenyl)imdazo [1,2-a]pyrazin-8-yl)amino)-1H-pyrazol-1-yl)piperidin-1-yl)ethyl)piperazin-1-yl)-3-methoxyphenyl) piperidine-2,6-dione] | 9.8 | – | 23 | 0.51
12 | Cc1cc(-c2cnc(Nc3cnn([C@@H]4CCN(CCN5CCN(c6ccc(C7CCC(=O)NC7=O)cc6)C[C@H]5C)[C@H](C)C4)c3)c3nccn23)c(F)cc1F (stereo partly drawn) [Compound 29, 3-(4-((R)-4-(2-((2R,4R)-4-(4-((5-(2,4-difluoro-5-methylphenyl)imdazo [1,2-a]pyrazin-8-yl)amino)-1H-pyrazol-1-yl)-2-methylpiperidin-1-yl)ethyl)-3-methylpiperazin-1-yl)phenyl) piperidine-2,6-dione] | 14 | – | 24 | 0.51
